Results taken from patent US10961309B2, “Reducing systemic regulatory T cell levels or activity for treatment of disease and injury of the CNS” (Yeda Research and Development Co. Ltd, priority 2014, dated 2021).
“Also recorded” adds a separate entry of the source.

Experiments:
Type in all cases: in vivo, mouse
[1] = system: splenocytes (CD4+Foxp3+ Tregs, CD4+ IFN-γ+ T cells); assay: Flow cytometry of splenocytes; settings: p300i 8.9 mg/kg/d i.p. 1 week vs vehicle (DMSO), aged mice (18 months), a day after cessation
Protocol: (§1) Mice were transcardially perfused with PBS, and tissues were treated as previously described (Baruch et al, 2013). Brains were dissected and the different brain regions were removed under a dissecting microscope (Stemi DV4; Zeiss) in PBS, and tissues were dissociated using the gentleMACS™ dissociator (Miltenyi Biotec). Choroid plexus tissues were isolated from the lateral, third and fourth ventricles of the brain, incubated at 37° C. for 45 min in PBS (with Ca^2+/Mg^2+) containing 400 U/ml collagenase type IV (Worthington Biochemical Corporation), and then manually homogenized by pipetting. Spleens were mashed with the plunger of a syringe and treated with ACK (ammonium chloride potassium) lysing buffer to remove erythrocytes. In all cases, samples were stained according to the manufacturers' protocols. All samples were filtered through a 70 μm nylon mesh, and blocked with anti-Fc CD16/32 (1:100; BD Biosciences). For intracellular staining of IFN-γ, the cells were incubated with […] (10 ng/ml; Sigma-Aldrich) and ionomycin (250 ng/ml; Sigma-Aldrich) for 6 h, and Brefeldin-A (10 μg/ml; Sigma-Aldrich) was added for the last 4 h. Intracellular labeling of cytokines was done with BD Cytofix/Cytoperm™ Plus fixation/permeabilization kit (cat. no. 555028). For Treg staining, an eBioscience FoxP3 staining buffer set (cat. no. 00-5523-00) was used. The following fluorochrome-labeled monoclonal antibodies were purchased from BD Pharmingen, BioLegend, R&D Systems, or eBiosciences, and used according to the manufacturers' protocols: PE or Alexa Fluor 450-conjugated anti-CD4; PE-conjugated anti-CD25; PerCP-Cy5.5-conjugated anti-CD45; FITC-conjugated anti-TCRβ; APC-conjugated anti-IFN-γ; APC-conjugated anti-FoxP3; Brilliant-violet-conjugated anti-CD45. Cells were analyzed on an LSRII cytometer (BD Biosciences) using FlowJo software. In each experiment, relevant negative control groups, positive controls, and single stained samples for each tissue were used to identify the populations of interest and to exclude other populations.

[2] = system: IFN-γ-expressing immune cells in the CP; assay: Flow cytometry of CP IFN-γ-expressing immune cells; settings: p300i 1 week vs vehicle (DMSO), aged mice (18 months), a day after cessation
Protocol: as §1, with “For Treg staining, an eBioscience FoxP3 staining buffer set (cat. no. 00-5523-00) was used. The following fluorochrome-labeled monoclonal antibodies were purchased from BD Pharmingen, BioLegend, R&D Systems, or eBiosciences, and used according to the manufacturers' protocols: PE or Alexa Fluor 450-conjugated anti-CD4; PE-conjugated anti-CD25; PerCP-Cy5.5-conjugated anti-CD45; FITC-conjugated anti-TCRβ; APC-conjugated anti-IFN-γ; APC-conjugated anti-FoxP3; Brilliant-violet-conjugated anti-CD45.” left out, “In each experiment, relevant negative control groups, positive controls, and single stained samples for each tissue were used to identify the populations of interest and to exclude other populations.” left out

Aβ plaques = assay: Aβ plaque quantitation (immunohistochemistry)
Protocol: Tissue processing and immunohistochemistry were performed on paraffin embedded sectioned mouse (6 μm thick) and human (10 μm thick) brains. For human ICAM-1 staining, primary mouse anti-ICAM (1:20 Abcam; ab2213) antibody was used. Slides were incubated for 10 min with 3% H2O2, and a secondary biotin-conjugated anti-mouse antibody was used, followed by biotin/avidin amplification with Vectastain ABC kit (Vector Laboratories). Subsequently, 3,3′-diaminobenzidine (DAB substrate) (Zytomed kit) was applied; slides were dehydrated and mounted with xylene-based mounting solution. For tissue stainings, mice were transcardially perfused with PBS prior to tissue excision and fixation. CP tissues were isolated under a dissecting microscope (Stemi DV4; Zeiss) from the lateral, third, and fourth ventricles of the brain. For whole mount CP staining, tissues were fixated with 2.5% paraformaldehyde (PFA) for 1 hour at 4° C., and subsequently transferred to PBS containing 0.05% sodium azide. Prior to staining, the dissected tissues were washed with PBS and blocked (20% horse serum, 0.3% Triton X-100, and PBS) for 1 h at room temperature. Whole mount staining with primary antibodies (in PBS containing 2% horse serum and 0.3% Triton X-100), or secondary antibodies, was performed for 1 h at room temperature. Each step was followed by three washes in PBS. The tissues were applied to slides, mounted with Immu-mount (9990402, from Thermo Scientific), and sealed with cover-slips. For staining of sectioned brains, two different tissue preparation protocols (paraffin embedded or microtomed free-floating sections) were applied, as previously described (Baruch et al, 2013; Kunis et al, 2013). The following primary antibodies were used: mouse anti-Aβ (1:300, Covance, #SIG-39320); rabbit anti-GFP (1:100, MBL, #598); rat anti-CD68 (1:300, eBioscience, #14-0681); rat anti-ICAM-1 (1:200, Abcam, #AB2213); goat anti-GFP (1:100, Abcam, #ab6658); rabbit anti-IBA-1 (1:300, Wako, #019-19741); goat anti-IL-10 (1:20, R&D systems, #AF519); rat anti-Foxp3 (1:20, eBioscience, #13-5773-80); rabbit anti-CD3 (1:500, Dako, #IS503); mouse anti-ZO-1, mouse anti-E-Cahedrin, and rabbit anti-Claudin-1 (all 1:100, Invitrogen, #33-9100, #33-4000, #51-9000); rabbit anti-GFAP (1:200, Dako, #Z0334). Secondary antibodies included: Cy2/Cy3/Cy5-conjugated donkey anti-mouse/goat/rabbit/rat antibodies (1:200; all from Jackson Immunoresearch). The slides were exposed to Hoechst nuclear staining (1:4000; Invitrogen Probes) for 1 min. Two negative controls were routinely used in immunostaining procedures, staining with isotype control antibody followed by secondary antibody, or staining with secondary antibody alone. For Foxp3 intracellular staining, antigen retrieval from paraffin-embedded slides was performed using Retreivagen Kit (#550524, #550527; BD Pharmingen™). Microscopic analysis, was performed using a fluorescence microscope (E800; Nikon) or laser-scanning confocal microscope (Carl Zeiss, Inc.). The fluorescence microscope was equipped with a digital camera (DXM 1200F; Nikon), and with either a 20× NA 0.50 or 40× NA 0.75 objective lens (Plan Fluor; Nikon). The confocal microscope was equipped with LSM 510 laser scanning capacity (three lasers: Ar 488, HeNe 543, and HeNe 633). Recordings were made on postfixed tissues using acquisition software (NIS-Elements, F3 [Nikon] or LSM [Carl Zeiss, Inc.]). For quantification of staining intensity, total cell and background staining was measured using ImageJ software (NIH), and intensity of specific staining was calculated, as previously described (Burgess et al, 2010). Images were cropped, merged, and optimized using Photoshop CS6 13.0 (Adobe), and were arranged using Illustrator CS5 15.1 (Adobe).
From each brain, 6 μm coronal slices were collected, and eight sections per mouse, from four different pre-determined depths throughout the region of interest (dentate gyrus or cerebral cortex) were immunostained. […]

[3] = system: soluble Aβ1-40 and Aβ1-42; assay: Soluble Aβ (sAβ) protein quantification by ELISA
Protocol: Tissue homogenization and sAβ protein extraction was performed as previously described (Schmidt et al, 2005). Briefly, cerebral brain parenchyma was dissected and snap-frozen and kept at −80° C. until homogenization. Proteins were sequentially extracted from samples to obtain separate fractions containing proteins of differing solubility. Samples were homogenized in 10 volumes of ice-cold tissue homogenization buffer, containing 250 mM of sucrose, 20 mM of Tris base, 1 mM of ethylenediaminetetraacetic acid (EDTA), and 1 mM of ethylene glycol tetraacetic acid (pH 7.4), using a ground glass pestle in a Dounce homogenizer. After six strokes, the homogenate was mixed 1:1 with 0.4% diethylamine (DEA) in a 100-mM NaCl solution before an additional six strokes, and then centrifuged at 135,000 g at 4° C. for 45 min. The supernatant (DEA-soluble fraction containing extracellular and cytosolic proteins) was collected and neutralized with 10% of 0.5M of Tris-HCl (pH 6.8). Aβ1-40 and Aβ1-42 were individually measured by enzyme-linked immunosorbent assay (ELISA) from the soluble fraction using commercially available kits (Biolegend; #SIG-38954 and #SIG-38956, respectively) according to the manufacturer instructions.

[4] = two courses of p300i, interval of 1 month

CC1=NN(c2ccc(C(=O)O)cc2)C(=O)/C1=C\c1ccc(-c2cc(C)c(C)cc2[N+](=O)[O-])o1 [p300i, 4-(4-((5-(4,5-dimethyl-2-nitrophenyl)furan-2-yl)methylene)-3-methyl-5-oxo-4,5-dihydro-1H-pyrazol-1-yl)benzoic acid]
IFN-γ-expressing cells (CD4+ T cells) in the spleen [1]: elevated levels; also recorded: elevation
IFN-γ-expressing immune cells in the CP [2]: elevated levels; also recorded: elevation
cerebral Aβ plaque load (Aβ plaques; p300i 1 week, examined 3 weeks later, 10-month old AD-Tg mice): significant reduction in cerebral Aβ plaque load
cerebral plaque load (cortex 5th layer) (Aβ plaques; single course of p300i, examined 2 months later, AD-Tg mice age 7 months): reduction of cerebral plaque load was evident
reduction of cerebral plaque load, two courses vs single course (Aβ plaques; two courses of p300i with a 1-month interval): stronger
cerebral sAβ levels ([3]; one course of p300i): effective in reducing cerebral sAβ
cerebral sAβ levels [3, 4]: effective in reducing cerebral sAβ
effect on sAβ1-42, repeated courses vs one course [3, 4]: stronger
